Results on 13 molecules are retold here after patent US20230346654A1, “Anhydrous Urea Emulsions” (BAEK CLINICAL INC., priority 2020, published 2023).

Data set [1] can be described thus: Assessment of solvents: ability to solubilize urea. As to conditions: neat solvent.
The nature of data set [2]: Assessment of solvents: gentleness or irritation on skin. The following applies: applied to skin; 1,3-propanediol even applied neat, or at 100% concentration. From the text: (§1) AA refers to L-ascorbic acid. U refers to urea. % values are wt %.
Data set [3] in a line: Solubility of optional additional components in non-aqueous solvents. Type of data set: physicochemical.
From the text: as §1

For data set [4] the following is noted: in most solvents; cited from earlier work.
For data set [5] the following is noted: concentrations of 0.2%; cited from earlier work.
For data set [6] the following is noted: stated as well-known; cited from earlier work.
For data set [7] the following is noted: in vivo; cited from earlier work.

Where two headings read alike, the source gives them in different places.

Turning to `OCC(O)COCC(O)CO` (stereo not drawn) [diglycerin], the “ability to solubilize urea” value in data set [1] is reported as “moderate”. As to `OCCCO` [1,3-propanediol], the gentleness on skin entry in data set [2] was “gentleness on skin”. Consider `OCC(O)CO` [Glycerin, glycerol (1,2,3-propanetriol)], for which the “ability to solubilize urea” value in data set [1] is on record as “moderate”. Still for that read-out and setting: to `CCCCC(O)CO` (stereo not drawn) [1,2-hexanediol] belongs “moderate”. For `CC1(C)[C@@H](O[C@H]2O[C@H](C(=O)O)[C@@H](O)[C@H](O)[C@H]2O[C@@H]2O[C@H](C(=O)O)[C@@H](O)[C@H](O)[C@H]2O)CC[C@]2(C)[C@H]3C(=O)C=C4[C@@H]5C[C@@](C)(C(=O)O)CC[C@]5(C)CC[C@@]4(C)[C@]3(C)CC[C@@H]12` [glycyrrhizic acid, Glycyrrhizic acid], the “solubility” value in data set [3] (in 1,3-propanediol) is “shows solubility”. In the case of `O=C(O)CCCCCCCC(=O)O` [AzA, Azelaic acid, reference compound], the “concentration that can be solubilized” value is “up to 10%” in data set [3] (in 1,3 propanediol) and 7.5% in data set [3] (with 10% AA, 5% U in a 1,3 propanediol base). Besides, in data set [3] (in the presence of hydroxyethyl urea), the “change of solubility in 1,3 propanediol” value is “slightly increased”. Also, the “solubility” value in data set [4] is reported as “very poorly soluble”. As to Madecassoside, the “solubility” value in data set [3] (at a concentration of 0.2% in 1,3 propanediol, 1,2 propanediol and 1,3 butanediol) is “soluble”. For the same molecule, the “ability to reduce erythema (skin redness)” value in data set [5] was “desirable ability to reduce erythema”. With `OCCCCCO` [1,5-pentanediol], the “ability to solubilize urea” value in data set [1] is reported as “moderate”. Regarding `COc1cc(CC(C(C)=O)C(C)=O)ccc1O` [Acetyl zingerone], in data set [3] (in 1,3 propanediol, 1,2 propanediol and 1,3 butanediol at 0.5-1%), the “solubility” value is on record as “readily soluble”. On to `CC(O)CO` (stereo not drawn) [1,2-propanediol], for which the “ability to solubilize urea” value in data set [1] was “moderate”. Also, the “skin irritation and sensitivity” value in data set [6] was “inducing skin irritation and sensitivity”. `CC(O)CCO` (stereo not drawn) [1,3-butanediol]: the gentleness on skin result in data set [2] is “relatively gentle on skin”. For `CC(C)(CO)[C@@H](O)C(=O)NCCCO` [Panthenol], in data set [7], the “concentration at which inhibition of transepidermal water loss is apparent” value was at least 1%.

Regarding `CO[C@H]1CO[C@H]2[C@@H]1OC[C@H]2OC` [Dimethyl isosorbide], the “ability to solubilize urea” value in data set [1] is “very limited”.
